Laboratory results from patent publication US8557746B2, “High throughput screens for small-molecule inhibitors of the nuclear receptor-like pathway regulating multidrug resistance in fungi” (The General Hospital Corporation, priority 2009, dated 2013).
“Also recorded” adds a separate entry of the source.

Columns and labels:
S. cerevisiae gal11Δ = test: Drug sensitivity assay on agar, S. cerevisiae GAL11 deletion strain; type: cell-based; details: growth on YPD agar with increasing drug concentration
Description: (§1) Fresh S. cerevisiae colonies were inoculated in 5 ml of YPD or SD selection medium, and grown overnight at 30° C. The cells were diluted to an OD600 of 0.2, and 2 μl were spotted on agar-based solid medium containing an increasing gradient of drugs (for example, ketoconazole, cycloheximide, or 4-NQO) in the agar. The plates were incubated at 30° C. for 2-3 days. Susceptibility of the C. glabrata mutants was tested by spotting serial dilutions of cells onto YPD agar plates supplemented with fluconazole or ketoconazole. The yeast strains were grown overnight at 30° C. in YPD liquid medium. Cells were diluted to an OD600 of 2.0 in PBS, and 4 μl of the cell suspension and tenfold serial dilutions of the cells were spotted onto plates. Growth was assessed after 1 day of incubation at 30° C.

Myc6-Pdr1p = biological target: T1, Myc6-Pdr1p (Saccharomyces cerevisiae, UniProt P12383); test: Drug-binding and cold competition assay with 3H-ketoconazole; parameters: species or system S. cerevisiae; details: for competition of binding of radiolabelled ketoconazole to Pdr1p by unlabelled xenobiotic: unlabelled xenobiotic at 1,000-fold excess of KET
T1 construct: N-terminal Myc-tagged full-length wild-type Pdr1p (Myc6-Pdr1pwt); made in house; host or cells: yeast (S. cerevisiae), immunopurified with anti-Myc 9E10 on Protein A/G beads
T1 sequence (P12383 whole entry): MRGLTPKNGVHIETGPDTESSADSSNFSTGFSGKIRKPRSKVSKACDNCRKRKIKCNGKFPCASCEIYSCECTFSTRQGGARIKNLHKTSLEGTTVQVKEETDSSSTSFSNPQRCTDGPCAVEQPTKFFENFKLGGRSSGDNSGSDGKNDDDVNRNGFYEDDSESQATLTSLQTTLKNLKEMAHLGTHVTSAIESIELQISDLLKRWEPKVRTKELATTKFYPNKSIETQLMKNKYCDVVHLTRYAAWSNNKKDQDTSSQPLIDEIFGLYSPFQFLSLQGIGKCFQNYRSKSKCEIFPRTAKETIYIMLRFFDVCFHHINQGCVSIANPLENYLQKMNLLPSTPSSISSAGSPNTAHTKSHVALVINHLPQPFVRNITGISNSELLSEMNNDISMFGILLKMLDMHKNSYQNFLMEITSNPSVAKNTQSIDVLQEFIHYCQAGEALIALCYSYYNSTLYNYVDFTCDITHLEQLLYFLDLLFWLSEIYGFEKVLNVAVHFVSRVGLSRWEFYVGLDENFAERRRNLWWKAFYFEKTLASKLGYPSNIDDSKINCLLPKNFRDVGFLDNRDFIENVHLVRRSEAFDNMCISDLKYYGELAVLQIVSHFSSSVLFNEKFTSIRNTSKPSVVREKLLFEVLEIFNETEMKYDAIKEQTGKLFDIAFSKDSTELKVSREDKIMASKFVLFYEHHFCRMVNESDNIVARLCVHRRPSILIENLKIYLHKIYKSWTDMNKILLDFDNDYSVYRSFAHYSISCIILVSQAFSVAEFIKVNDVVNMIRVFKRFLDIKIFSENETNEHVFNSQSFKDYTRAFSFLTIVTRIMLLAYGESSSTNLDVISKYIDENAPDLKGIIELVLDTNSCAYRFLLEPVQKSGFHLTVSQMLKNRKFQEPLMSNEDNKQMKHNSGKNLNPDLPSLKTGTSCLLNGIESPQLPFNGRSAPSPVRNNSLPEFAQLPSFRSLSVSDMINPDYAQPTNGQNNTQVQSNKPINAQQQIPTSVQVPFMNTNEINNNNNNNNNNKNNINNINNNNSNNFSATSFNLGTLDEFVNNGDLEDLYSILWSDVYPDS
Description: (§2) For co-immunoprecipitation, yeast cells were transformed with Myc6-Pdr1pwt and Gal11p-Flag2 (or Gal11pAKIX-Flag2). Cells were washed with 1×PBS after overnight culture in YPD medium, and then cultured in YP for another 24 hr. Cells were then treated with different concentrations of ketoconazole and cycloheximide (or ethanol for vehicle controls) for 1 hr. Yeast cell lysates were extracted in immunoprecipitation buffer (50 mM Tris-HCI, pH 8.0, 140 mM NaCl, 0.1 mM EDTA, 10% glycerol, 0.02% NP-40, 1 mM DTT, 0.25 mM PMSF, 1 mM benzamidine, 0.5 mgml^−1 aprotinin and Protease Inhibitor Cocktail (Complete, Roche)), with or without xenobiotics by vortexing in the presence of glass beads. The Flag-tagged proteins were then immunoprecipitated by adding anti-Flag M2 antibody-beads (Sigma) and incubating for 3 hr with mutating at 4 C. After washing five times with 1 ml of 0.25 M KCl IP buffer, bound proteins were eluted with 0.1 mgml^−1 Flag peptide (Sigma). Xenobiotics at the indicated concentrations were present at all steps of the co-immunoprecipitation, including washing. Immunoblotting was performed according to standard protocols. To immunopurify Myc6-Pdr1pwt or HA-Pdr1pwt, yeast whole-cell extract (in immunoprecipitation buffer) was incubated with anti-Myc (9E10) antibody or anti-HA (F-7) antibody, and a 50% mix of Protein A- and G-Sepharose beads (Amersham) at 4° C. for 3 hr. Beads were washed with IP buffer five times, and used for drug-binding experiments as outlined herein.
Xenobiotic-binding experiments were performed essentially as described (Kapinsky & Lasar, 435 Nature 446-51 (2005)), with some modifications as explained herein. Radiolabelled ketoconazole (KET: [^3H]G), specific radioactivity 10 Ci mmol^−1, was purchased from American Radiolabelled Chemicals. Beads with either immunopurified proteins or GST recombinant proteins were incubated with KET ([^3H]G) in drug-binding buffer (10 mM K2HPO4, 10 mM KH2PO4, pH 7.0, 2 mM EDTA, 50 mM NaCl, 1 mM DTT, 0.5 mM CHAPS, 10% glycerol and protease inhibitors) at 4° C. for 3 hr with mixing in a volume of 500 μl. […]

C. glabrata Cggal11AΔ = test: Drug sensitivity growth assay, C. glabrata CgGAL11A deletion strain; type: cell-based; details: growth assays on YPD plates
Description: as §1

PDR5 gene = test: Xenobiotic-induced transcription of Pdr1p/Pdr3p target genes by quantitative real-time RT-PCR; type: cell-based; details: S. cerevisiae, Pdr1p/Pdr3p-dependent, 20 min drug treatment
Description: Yeast cultures were grown overnight with agitation in YPD at 30° C. The next day, cells were pelleted and washed twice with sterilized purified water (Millipore). Cells were then resuspended in 1% yeast extract and 2% peptone (YP) to an optical density (OD600) of 0.8, grown for another 16 hr at 30° C., then treated with different drugs for 20 min for quantitative RT-PCR, or 5 hr for β-galactosidase assay.
Total RNA was extracted from 5 ml of yeast culture using the Qiagen RNeasy MiniKit. Two micrograms of total RNA was used to generate cDNA using the First-Strand cDNA Synthesis Kit (GE Healthcare). The cDNA mix was diluted tenfold, and 2 μl was used for real-time quantitative PCR with SYBR Green (Applied Biosystems) on an ABI Prism 7900HT Sequence Detection System (Applied Biosystems).

C. glabrata = test: C. elegans liquid killing assay; type: in vivo; details: fluconazole 8 μg/ml; for survival of nematodes infected with wild-type C. glabrata under antifungal treatment: six-day experiment
Description: The C. glabrata strains and lawns were grown and prepared as described previously. Breger, 3 PloS Pathogens, el8 (2007). The liquid medium killing assays were conducted as detailed in Breger, 2007, with a few changes. After the glp-4;sek-I worms were incubated at 25° C. for 2 days, they were washed off the nematode growth medium plates with M9 and transferred to C. glabrata lawns formed on Brain-Heart Infusion broth (Difco) agar plates. The worms were incubated on the lawns for 4 hr at 25° C., then washed off the plates with M9 buffer and allowed to crawl on unneeded Brain-Heart Infusion broth plates to remove yeast cells from their cuticles. Approximately 70-80 worms were then picked to wells in a six-well microtiter dish that contained 2 ml of liquid medium of 79% M9 buffer, 20% Brain-Heart Infusion broth, 10 μgml^−1 cholesterol in ethanol, and 90 μgml^−1 kanamycin, with the addition of 0.25% DMSO or 8 μgml^−1 fluconazole. The plates were incubated at 25° C. overnight and then examined at 24 hr intervals for survival. […] P values were calculated based on the entire six-day experiment with the log rank and Wilcoxon tests performed by STATA 6 statistical software (Stata, College Station, Tex.).

CgPdr1p = test: Binding of 3H-ketoconazole to immunopurified CgPdr1p; parameters: species or system C. glabrata; details: immunopurified Myc6-CgPdr1p on beads
Description: as §2, with “Immunoblotting was performed according to standard protocols. To immunopurify Myc6-Pdr1pwt or HA-Pdr1pwt, yeast whole-cell extract (in immunoprecipitation buffer) was incubated with anti-Myc (9E10) antibody or anti-HA (F-7) antibody, and a 50% mix of Protein A- and G-Sepharose beads (Amersham) at 4° C. for 3 hr. Beads were washed with IP buffer five times, and used for drug-binding experiments as outlined herein.” left out
Xenobiotic-binding experiments were performed essentially as described (Kapinsky & Lasar, 435 Nature 446-51 (2005)), with some modifications as explained herein. Radiolabelled ketoconazole (KET: [^3H]G), specific radioactivity 10 Ci mmol^−1, was purchased from American Radiolabelled Chemicals. […]

[1] = system: S. cerevisiae wild-type cells; test: High throughput cell viability screen (OD600) with or without ketoconazole; type: cell-based; details: OD600, two-fold dilutions from 30 μg/mL, with ketoconazole
Description: Briefly, S. cerevisiae or C. glabrata wild-type cells are grown to exponential growth phase and added to 384-well plates. Each well contains rich media with either (a) drug of interest or (b) drug of interest with ketoconazole. Serial 2-fold dilutions of compounds are tested to determine concentration-dependent effects upon cell viability. Cells are incubated at 30° C. and optical density (OD600) is measured to determine cell growth. Plates are set up in duplicate and compounds are scored for their ability to inhibit cell growth in the presence or absence of ketoconazole. For S. cerevisiae screening, wild-type inoculum cultures were grown in YPD (1% yeast extract, 2% bacto-peptone, 2% dextrose) at 30° C., 200 rpm overnight. On day 2, these cultures were expanded to log-phase growth in the morning (OD600˜0.500). On day 3, compounds of interest were added to 25 μL of YPD or YPD+10 μM ketoconazole at an initial concentration of 30 μg/mL and set up as 5 two-fold serial dilutions. Log-phase wild-type cultures with an OD600˜0.500 were diluted to an OD600 of 0.005 and added at an equal volume (25 μL) of wild-type cells to wells with compounds +/− ketoconazole. Initial OD600 values were read with a Perkin Elmer EnVision and plates incubated in a moist chamber at 30° C. OD600 was read at 24 hr, 48 hr, 72 hr and 96 hr. […]

SMILES | sensitivity of GAL11 deletion strain to toxin/xenobiotic (S. cerevisiae gal11Δ) | competition of binding of radiolabelled ketoconazole to Pdr1p by unlabelled xenobiotic (Myc6-Pdr1p) | sensitivity of CgGAL11A deletion strain to drug (C. glabrata Cggal11AΔ) | induction of expression of drug efflux pump PDR5 and other Pdr1p/Pdr3p target genes (PDR5 gene) | survival of nematodes infected with wild-type C. glabrata under antifungal treatment (C. glabrata) | also measured
O=[N+]([O-])c1cc[n+]([O-])c2ccccc12 [4-nitroquinoline oxide] | striking sensitivity |  |  |  |  | 
C[C@@H]1C[C@@H]([C@H](O)CC2CC(=O)NC(=O)C2)C(=O)[C@@H](C)C1 [cycloheximide] | striking sensitivity | effectively competed | markedly increased sensitivity | induced |  | 
OC(Cn1cncn1)(Cn1cncn1)c1ccc(F)cc1F [fluconazole] |  |  | markedly increased sensitivity |  | completely resistant; also recorded: death of most nematodes within six days | survival of nematodes infected with Cggal11B or Cgmed1 deletion strains in the presence of antifungal (C. glabrata; Cggal11B or Cgmed1 deletion strains): little difference in survival rates; survival of nematodes infected with Cgpdr1 and Cggal11A deletion strains in the presence of antifungal (C. glabrata): significantly increased survival; survival of nematodes infected with Cgpdr1 and Cggal11A deletion strains in the presence of antifungal (C. glabrata; listed as Fluconazole): increased the lifespan of nematodes
CC(=O)N1CCN(c2ccc(OCC3COC(Cn4ccnc4)(c4ccc(Cl)cc4Cl)O3)cc2)CC1 (stereo not drawn) [ketoconazole] | striking sensitivity | effectively competed | markedly increased sensitivity | induced | completely resistant | Kd (Myc6-Pdr1p; cold ligand competition, 0.1 μM 3H-KET, Myc6-Pdr1p, read-out: dissociation constant (KD) of binding to immunopurified Pdr1p): ~39 µM; direct binding of radiolabeled compound to CgPdr1p (CgPdr1p): binds directly
CN(C/C=C/C#CC(C)(C)C)Cc1cccc2ccccc12 [terbinafine] |  |  |  |  |  | growth inhibition in the presence of ketoconazole [1]: eliminate cell growth
